Laboratory results: patent US9487482B2, “3,4,5-trimethoxystyrylarylaminopropenones as potential anticancer agents” (Council of Scientific and Industrial Research, priority 2014, dated 2016)

Assays:
MCF-7 cells = assay: In vitro cytotoxicity, MTT assay, MCF-7; type: cell-based, human; conditions: Homo sapiens, 48 h continuous drug exposure
Description: (§1) All cell lines used in this study were purchased from the American Type Culture Collection (ATCC, United States). A549, MCF-7, and HeLa were grown in Dulbecco's modified Eagle's medium (containing 10% FBS in a humidified atmosphere of 5% CO2 at 37° C.). HCT116 cells were cultured in Eagle's minimal essential medium (MEM) containing non-essential amino acids, 1 mM sodium pyruvate, […] bovine insulin, and 10% FBS. Cells were trypsinized when sub-confluent from T25 flasks/60 mm dishes and seeded in 96-well plates. The synthesized test compounds were evaluated for their in vitro antiproliferative in four different human cancer cell lines. A protocol of 48 h continuous drug exposure was used, and a MTT cell proliferation assay was used to estimate cell viability or growth. The cell lines were grown in their respective media containing 10% fetal bovine serum and were seeded into 96-well microtiter plates in 200 μL, aliquots at plating densities depending on the doubling time of individual cell lines. The microtiter plates were incubated at 37° C., 5% CO2, 95% air, and 100% relative humidity for 24 h prior to addition of experimental drugs. Aliquots of 2 μL, of the test compounds were added to the wells already containing 198 μL, of cells, resulting in the required final drug concentrations. For each compound, four concentrations (1, 10, 100, and 1000 μM) were evaluated, and each was done in triplicate wells. Plates were incubated further for 48 h, and the assay was terminated by the addition of 10 μL, of 5% MTT and incubated for 60 min at 37° C. Later, the plates were air-dried. Bound stain was subsequently eluted with 100 μL, of DMSO, and the absorbance was read on an multimode plate reader (Tecan M200) at a wavelength of 560 nm. Percent growth was calculated on a plate by plate basis for test wells relative to control wells. The above determinations were repeated thrice. The growth inhibitory effects of the compounds were analyzed by generating dose response curves as a plot of the percentage surviving cells versus compound concentration. The sensitivity of the cancer cells to the test compound was expressed in terms of IC50, a value defined as the concentration of compound that produced 50% reduction as compared to the control absorbance. (A. S. Kumar, M. A. Reddy, N. Jain, C. Kishor, T. R. Murthy, D. Ramesh, B. Supriya, A. Addlagatta, S. V. Kalivendi, B. Sreedhar. Eur. J. Med. Chem. 60 (2013) 305-24).

A549 cells = assay: In vitro cytotoxicity, MTT assay, A549; type: cell-based, human; conditions: Homo sapiens, A549 (non-small cell lung cancer), 48 h continuous drug exposure
Description: as §1

HeLa cells = assay: In vitro cytotoxicity, MTT assay, HeLa; type: cell-based, human; conditions: Homo sapiens, HeLa (cervical carcinoma), 48 h continuous drug exposure
Description: as §1

[1] = tested on: A549, HeLa, MCF-7 and HCT116 cells; assay: In vitro cytotoxicity, MTT assay, summary over all four cancer cell lines; type: cell-based; conditions: Homo sapiens, range over the group of compounds and the four cell lines, read-out: IC50 value range towards all the cancer cell lines
Description: as §1

HCT116 cells = assay: In vitro cytotoxicity, MTT assay, HCT116; type: cell-based, human; conditions: Homo sapiens, HCT-116, HCT116 (colon carcinoma), 48 h continuous drug exposure
Description: as §1

[2] = MCF7, 48 h, MCF-7 (breast cancer)

## COc1ccc(/C=C\c2cc(OC)c(OC)c(OC)c2)c(N/C=C\C(=O)c2cc(OC)c(OC)c(OC)c2Br)c1O [Compound 16y, (Z)-1-(2-bromo-3,4,5-trimethoxyphenyl)-3-((2-hydroxy-3-methoxy-6-((Z)-3,4,5-trimethoxystyryl)phenyl)amino)prop-2-en-1-one]
MCF-7 cells; [2]
  IC50: 0.19 µM
A549 cells
  IC50: 7.08 µM
HeLa cells
  IC50: 1.78 µM
[1]
  IC50: 0.18 to 7.33 µM
HCT116 cells
  IC50: 2.69 µM

## COc1cc(C=Cc2cc(OC)c(OC)c(OC)c2)cc(N/C=C\C(=O)c2cn(C)c3ccccc23)c1OC [Compound 11w, (Z)-3-(2,3-dimethoxy-5-(3,4,5-trimethoxystyryl)phenylamino)-1-(1-methyl-1H-indol-3-yl)prop-2-en-1-one]
MCF-7 cells; [2]
  IC50: 3.39 µM
A549 cells
  IC50: 0.14 µM
HeLa cells
  IC50: 5.89 µM
[1]
  IC50: 0.12 to 5.75 µM
HCT116 cells
  IC50: 1.95 µM

## COc1ccc(/C=C\c2cc(OC)c(OC)c(OC)c2)c(N/C=C\C(=O)c2cc(OC)c(OC)c(OC)c2)c1O [Compound 16x, (Z)-3-((2-hydroxy-3-methoxy-6-((Z)-3,4,5-trimethoxystyryl)phenyl)amino)-1-(3,4,5-trimethoxyphenyl)prop-2-en-1-one]
MCF-7 cells; [2]
  IC50: 0.23 µM
A549 cells
  IC50: 0.25 µM
HeLa cells
  IC50: 0.56 µM
[1]
  IC50: 0.18 to 7.33 µM
HCT116 cells
  IC50: 3.63 µM

## COc1ccc(C=Cc2cc(OC)c(OC)c(OC)c2)cc1N/C=C\C(=O)c1c[nH]c2ccccc12 [Compound 10v, (Z)-1-(1H-indol-3-yl)-3-(2-methoxy-5-(3,4,5-trimethoxystyryl)phenylamino)prop-2-en-1-one]
MCF-7 cells; [2]
  IC50: 0.11 µM
A549 cells
  IC50: 0.17 µM
HeLa cells
  IC50: 0.53 µM
[1]
  IC50: 0.11 to 4.68 µM
HCT116 cells
  IC50: 0.33 µM

## COc1ccc(/C=C\c2cc(OC)c(OC)c(OC)c2)cc1N/C=C\C(=O)c1ccc(OC(F)(F)F)cc1 [Compound 10o, (Z)-3-((2-methoxy-5-((Z)-3,4,5-trimethoxystyryl)phenyl)amino)-1-(4-(trifluoromethoxy)phenyl)prop-2-en-1-one]
MCF-7 cells; [2]
  IC50: 1.32 µM
A549 cells
  IC50: 2.69 µM
HeLa cells
  IC50: 0.26 µM
[1]
  IC50: 0.11 to 4.68 µM
HCT116 cells
  IC50: 2.95 µM

## COc1cc(C=Cc2cc(OC)c(OC)c(OC)c2)cc(N/C=C\C(=O)c2c[nH]c3ccccc23)c1OC [Compound 11v, (Z)-3-(2,3-dimethoxy-5-(3,4,5-trimethoxystyryl)phenylamino)-1-(1H-indol-3-yl)prop-2-en-1-one]
MCF-7 cells; MCF7, MCF-7 (breast cancer)
  IC50: 3.02 µM
A549 cells
  IC50: 0.56 µM
HeLa cells
  IC50: 0.67 µM
[1]
  IC50: 0.12 to 5.75 µM
HCT116 cells
  IC50: 1.48 µM

## COc1ccc(C(=O)/C=C\Nc2cc(/C=C\c3cc(OC)c(OC)c(OC)c3)ccc2OC)cc1N [Compound 10u, (Z)-1-(3-amino-4-methoxyphenyl)-3-((2-methoxy-5-((Z)-3,4,5-trimethoxystyryl)phenyl)amino)prop-2-en-1-one]
MCF-7 cells; MCF7, MCF-7 (breast cancer)
  IC50: 0.25 µM
A549 cells
  IC50: 2.4 µM
HeLa cells
  IC50: 0.52 µM
[1]
  IC50: 0.11 to 4.68 µM
HCT116 cells
  IC50: 0.77 µM

## COc1cc(/C=C\c2cc(OC)c(OC)c(OC)c2)cc(N/C=C\C(=O)c2cc(OC)c(OC)c(OC)c2)c1OC [Compound 11x, (Z)-3-((2,3-dimethoxy-5-((Z)-3,4,5-trimethoxystyryl)phenyl)amino)-1-(3,4,5-trimethoxyphenyl)prop-2-en-1-one]
MCF-7 cells; [2]
  IC50: 7.08 µM
A549 cells
  IC50: 3.33 µM
HeLa cells
  IC50: 3.72 µM
[1]
  IC50: 0.12 to 5.75 µM
HCT116 cells
  IC50: 0.28 µM

## COc1ccc(C(=O)/C=C\Nc2c(/C=C\c3cc(OC)c(OC)c(OC)c3)ccc(OC)c2O)cc1O [Compound 16q, (Z)-3-((2-hydroxy-3-methoxy-6-((Z)-3,4,5-trimethoxystyryl)phenyl)amino)-1-(3-hydroxy-4-methoxyphenyl)prop-2-en-1-one]
MCF-7 cells; [2]
  IC50: 0.2 µM
A549 cells
  IC50: 1.58 µM
HeLa cells
  IC50: 4.17 µM
[1]
  IC50: 0.18 to 7.33 µM
HCT116 cells
  IC50: 6.76 µM

## COc1ccc(C(=O)/C=C\Nc2cc(/C=C\c3cc(OC)c(OC)c(OC)c3)ccc2OC)cc1O [Compound 10q, (Z)-1-(3-hydroxy-4-methoxyphenyl)-3-((2-methoxy-5-((Z)-3,4,5-trimethoxystyryl)phenyl)amino)prop-2-en-1-one]
MCF-7 cells; [2]
  IC50: 4.68 µM
A549 cells
  IC50: 3.89 µM
HeLa cells
  IC50: 0.23 µM
[1]
  IC50: 0.11 to 4.68 µM
HCT116 cells
  IC50: 0.83 µM
